The values below come from patent publication US9387216B2, “Biomarkers for treatment of neoplastic disorders using androgen-targeted therapies” (Tokai Pharmaceuticals, Inc., priority 2013, dated 2016).

Like-named read-outs stand apart in the source and are kept apart here.

One experiment concerns AR nuclear translocation. Description: AR nuclear translocation by immunocytochemistry / immunofluorescence. It is filed as cell-based.
The subject of experiment [1] is AR and prostate-specific antigen (PSA) protein expression. Description: AR and PSA protein expression (western blot) in LNCaP and Enzalutamide resistant cells. It is filed as cell-based. On the technique in general: In western blotting, separated proteins are transferred to a membrane and probed.
In another experiment the test system is AR activity. Nature of the experiment: AR luciferase assay. It is filed as cell-based.
The conditions of experiment [2]: cited from earlier work.
The target in another experiment is T1, full-length AR and AR-V7 (Homo sapiens, UniProt P10275, H875Y).
T1 construct: CWR22rv1 cell line which constitutively expresses both AR and AR-V7; endogenous in cells; host or cells: CWR22rv1
T1 sequence (P10275 1-920 H875Y): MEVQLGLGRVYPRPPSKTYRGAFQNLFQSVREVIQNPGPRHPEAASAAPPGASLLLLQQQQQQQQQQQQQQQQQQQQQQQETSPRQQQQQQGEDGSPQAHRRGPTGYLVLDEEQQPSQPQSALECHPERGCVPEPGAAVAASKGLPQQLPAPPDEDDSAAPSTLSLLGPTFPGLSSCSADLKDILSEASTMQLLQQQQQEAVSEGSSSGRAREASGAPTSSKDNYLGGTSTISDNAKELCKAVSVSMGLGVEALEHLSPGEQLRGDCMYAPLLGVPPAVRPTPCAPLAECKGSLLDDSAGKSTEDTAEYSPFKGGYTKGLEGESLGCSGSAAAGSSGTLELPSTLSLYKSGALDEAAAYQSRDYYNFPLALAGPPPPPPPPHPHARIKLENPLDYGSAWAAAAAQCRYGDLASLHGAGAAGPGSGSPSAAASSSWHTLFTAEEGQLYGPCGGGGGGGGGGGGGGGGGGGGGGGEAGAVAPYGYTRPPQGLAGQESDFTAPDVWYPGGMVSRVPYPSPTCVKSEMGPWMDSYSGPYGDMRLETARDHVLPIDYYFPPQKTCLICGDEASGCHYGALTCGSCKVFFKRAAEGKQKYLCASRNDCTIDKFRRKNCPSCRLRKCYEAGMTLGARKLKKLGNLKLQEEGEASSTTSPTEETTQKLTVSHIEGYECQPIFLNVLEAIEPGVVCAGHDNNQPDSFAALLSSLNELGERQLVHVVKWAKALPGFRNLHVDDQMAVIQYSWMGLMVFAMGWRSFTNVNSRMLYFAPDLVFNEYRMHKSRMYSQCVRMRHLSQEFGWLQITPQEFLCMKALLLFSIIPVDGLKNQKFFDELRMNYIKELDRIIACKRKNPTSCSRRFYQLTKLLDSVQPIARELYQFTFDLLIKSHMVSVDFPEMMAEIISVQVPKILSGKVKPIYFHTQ
In kind it is cell-based. The procedure:
An experiment to detect expression of full-length AR and AR-V7 variant proteins was conducted in a CWR22rv1 cell line which constitutively expresses both AR and AR-V7. […] See also FIG. 4.

In another experiment the test system is CWR22rv1 cell line. Nature of the experiment: Cell proliferation in CWR22rv1 cell line. In kind it is cell-based.
Experiment [3] relates to LNCaP cells, CRPC cells, Enzalutamide resistant cell lines 49F and 49C. Description: Crystal violet and MTT proliferation/viability assays in LNCaP, CRPC and Enzalutamide resistant (49C, 49F) cells. It is filed as cell-based.
Experiment [4] deals with LuCaP136 castration resistant xenograft tumors which express AR-V7. Description: Xenograft model of CRPC in mice (LuCaP136). In kind it is in vivo. The procedure:
Galeterone was tested in a xenograft model of CRPC in mice. […] AR-V7 was detected in LuCaP136 castration resistant xenograft tumors using RT-PCR.

The test system of another experiment is PSA levels. Description: PSA response of CRPC patients by AR C-terminal status. In kind it is in vivo, human. The note with it: for maximal reductions in PSA levels: patients with AR C-terminal loss. The procedure:
A group of six patients naive to previous CRPC therapy was analyzed with respect to AR status. Four of the six patients were identified as having AR receptors with a C-terminal loss as determined by the evaluation of C-terminal androgen receptor expression in relation to N-terminal androgen receptor expression. All four of the patients having this AR variant had maximal reductions in PSA levels of at least 50%.

Experiment [5] deals with AR-dependent gene expression. Nature of the experiment: AR-dependent gene expression in cells with wild-type AR and AR point mutations. It is filed as cell-based. The source says:
These cells also express AR receptors with F876L mutation.

The target of another experiment is T2, CYP17 lyase (Homo sapiens, UniProt P05093).
T2 sequence (P05093 1-508): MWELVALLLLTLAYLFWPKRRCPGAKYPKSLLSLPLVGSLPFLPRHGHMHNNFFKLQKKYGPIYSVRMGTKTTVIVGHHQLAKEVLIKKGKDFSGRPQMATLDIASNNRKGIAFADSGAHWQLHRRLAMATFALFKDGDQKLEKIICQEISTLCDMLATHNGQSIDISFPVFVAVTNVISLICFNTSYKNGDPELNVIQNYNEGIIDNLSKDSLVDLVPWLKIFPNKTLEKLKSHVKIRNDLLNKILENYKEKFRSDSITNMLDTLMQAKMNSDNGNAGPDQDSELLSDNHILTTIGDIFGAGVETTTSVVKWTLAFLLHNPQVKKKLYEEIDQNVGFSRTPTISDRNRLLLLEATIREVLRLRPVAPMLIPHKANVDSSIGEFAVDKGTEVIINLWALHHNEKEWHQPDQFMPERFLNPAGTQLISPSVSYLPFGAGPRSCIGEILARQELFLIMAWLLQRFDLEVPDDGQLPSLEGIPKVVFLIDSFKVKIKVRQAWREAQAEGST
The note with it: steroidogenic pathway; cited from earlier work.

[6] abbreviates: enzalutamide-responsive CPRC cell line.
Setting [7] is: patients expressing AR-V7 mRNA in circulating tumor cells.

For `C[C@]1(O)CC[C@H]2[C@@H]3CCC4=CC(=O)CCC4=C3C=C[C@@]21C` [Compound R1881, reference compound], the “AR translocation to the nucleus” value with AR nuclear translocation was “caused robust AR translocation to the nucleus”.

In the case of `CNC(=O)c1ccc(N2C(=S)N(c3ccc(C#N)c(C(F)(F)F)c3)C(=O)C2(C)C)cc1F` [Enzalutamide, reference compound], the “AR and PSA protein expression levels” value in experiment [1] (LNCaP cells) is “reduced AR and PSA protein expression levels”. Moreover, in the experiment on AR activity (setting [6]), the “AR activity (luciferase)” value is given as “reduced AR activity”. In experiment [2] (AR-V7 negative patients), the “patients for which PSA levels dropped by 50%” value is reported as 53% and the time to progression was 6.1 months. Besides, in experiment [2] (setting [7]), the PSA decline result was “no PSA decline” and the time to progression is 2.1 months.

As to `C[C@]12CC[C@H](O)CC1=CC[C@@H]1[C@@H]2CC[C@]2(C)C(n3cnc4ccccc43)=CC[C@@H]12` [Galeterone, 3-β-Hydroxyl 17-(1H-benzimidazol-1-yl)androsta-5,16-diene], the “abiraterone and enzalutamide resistance due to AR splice variants” value at full-length AR and AR-V7 was “successfully overcomes abiraterone and enzalutamide resistance due to AR splice variants”. In addition, the cell proliferation result in the experiment with CWR22rv1 cell line was “reduces cell proliferation”. In experiment [3] (crystal violet and MTT assays, LNCaP cells, CRPC cells, Enzalutamide resistant cells), the anti-proliferative effects entry was “had anti-proliferative effects”. Also, the “castration-resistant LNCaP growth and enzalutamide-resistant cell growth in vitro” value in [3] (summary of the data) is given as “suppresses castration-resistant LNCaP growth as well as enzalutamide-resistant cell growth”. In addition, the “AR and PSA protein expression levels” value in experiment [1] (Enzalutamide resistant cell line) was “still observed in resistant cells”; in experiment [1] (LNCaP cells), “induced a greater reduction in AR and prostate-specific antigen (PSA) protein expression”. Besides, the “AR nuclear translocation (immunofluorescence, FIG. 15B)” value in the experiment with AR nuclear translocation (cytoplasmic vs nuclear green staining vs. control) is on record as “reduces AR nuclear translocation”. For the same compound, the “AR activity (luciferase)” value in the experiment with AR activity (Enzalutamide resistant cell lines 49C and 49F) is reported as “reduced AR activity in all three cell lines”; in the experiment on AR activity (setting [6]), “reduced AR activity in all three cell lines”. In addition, the “AR activity (summary)” value in the experiment with AR activity (summary of the data) is recorded as “strongly inhibits AR activity”. For the same compound, the “response of castration resistant tumors which express AR-V7” value in experiment [4] is listed as “respond”. The “maximal reductions in PSA levels” value is “at least 50%” in the experiment on PSA levels (12 weeks at 2550 mg daily) and above 50% with PSA levels (12 weeks at 2550 mg daily, listed as galeterone). The “patients with maximal PSA response” value in the experiment with PSA levels (patients with C-terminal AR loss) is 4/4. Further, the “reduction in PSA” value with PSA levels (two patients without loss of the AR C-terminal domain, 12 weeks at 2550 mg daily) is reported as “did not respond as strongly”. The AR-dependent gene expression result in experiment [5] is reported as “reduces AR-dependent gene expression”. On CYP17 lyase, the “inhibition of CYP17 lyase” value is listed as “potent inhibitor”.
